Key:
[1] = target: T1, mushroom tyrosinase; experiment: dopachrome formation at […] nm, monophenolase activity; type: biochemical; settings: 0.5 mM L-tyrosine, 20 µg/mL enzyme, 50 mM phosphate pH 6.8, 30°C, air-saturated, proposed suicide substrate
T1 construct: gene PPO3

[2] = tested on: T1, mushroom tyrosinase; experiment: dopachrome formation at […] nm, diphenolase activity, Lineweaver-Burk; type: biochemical; settings: no α-arbutin, 6.67 µg/mL enzyme, 50 mM phosphate pH 6.8, 30°C, air-saturated; apparent Km

Km [2] | SMILES | IC50 [1]
 | OC[C@H]1O[C@H](Oc2ccc(O)cc2)[C@H](O)[C@@H](O)[C@@H]1O [α-arbutin] | 4.5 mM
3.92 mM | N[C@@H](Cc1ccc(O)c(O)c1)C(=O)O [L-Dopa] | 

— article PMC4193772, “Dual Effects of Alpha-Arbutin on Monophenolase and Diphenolase Activities of Mushroom Tyrosinase” (PLoS ONE, 2014)
